Results on 4 compounds are retold here after patent US11382956B2, “Amylin analogues” (Zealand Pharma A/S, priority 2016, dated 2022).

A short description of data set [1]: Effect on acute food intake and body weight in normal Sprague Dawley rats. The class given is in vivo, Sprague Dawley (SD) rats. The conditions noted are these: Dose: 30 nmol/kg sc, vehicle-corrected.
For data set [2], the target named is T1, recombinant human amylin 3 receptor (hAMYR3) (Homo sapiens, UniProt O60896+P30988).
T1 construct: host or cells: human astrocytoma cell line 1321N1
T1 sequence (P30988 25-474): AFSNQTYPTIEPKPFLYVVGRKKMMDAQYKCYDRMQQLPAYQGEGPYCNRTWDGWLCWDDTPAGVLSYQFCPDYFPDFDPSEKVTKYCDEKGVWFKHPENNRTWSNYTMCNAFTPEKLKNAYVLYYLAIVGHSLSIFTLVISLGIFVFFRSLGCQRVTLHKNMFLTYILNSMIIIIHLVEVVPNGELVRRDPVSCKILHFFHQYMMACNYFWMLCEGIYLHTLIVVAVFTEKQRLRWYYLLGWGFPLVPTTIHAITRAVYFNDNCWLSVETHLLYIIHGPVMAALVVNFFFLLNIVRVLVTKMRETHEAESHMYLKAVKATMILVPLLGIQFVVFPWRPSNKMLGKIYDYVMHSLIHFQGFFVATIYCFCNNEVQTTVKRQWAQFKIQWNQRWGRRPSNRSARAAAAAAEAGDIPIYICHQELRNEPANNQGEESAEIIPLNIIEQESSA
T1 sequence (O60896 24-148 partner): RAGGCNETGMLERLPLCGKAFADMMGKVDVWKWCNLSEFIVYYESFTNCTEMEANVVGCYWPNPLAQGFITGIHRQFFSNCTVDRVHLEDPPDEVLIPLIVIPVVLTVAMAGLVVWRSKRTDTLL
Briefly: hAMYR3 cAMP assay (AlphaScreen) in 1321N1 cells. The format is cell-based. To be noted: cAMP formation, 45 min stimulation. A digest of the protocol: (§1)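 EC50 values come from curve fits over at least 7 peptide concentrations, with cAMP read by AlphaScreen competition after 1 h in the dark. Cells were 1321N1 lines carrying human calcitonin receptor, with RAMP3 co-expressed for AMY3, treated 45 min at room temperature in the presence of IBMX.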

Data set [3] is described as follows: Pharmacokinetic (PK) profiling in rats. The conditions noted are these: male, Sprague Dawley, plasma; rat, single sc bolus 30 nmol/kg; read-out: in vivo half life t1/2 (plasma terminal elimination half-life) (converted). How it is done:
Sprague Dawley male rats were given a single subcutaneous (sc) bolus of each peptide to be tested, as specified below.
30 nmol/kg doses of compound were administered. Blood samples were drawn from the tail vein prior to dosing and at 24 and 96 hours after dosing. The rats were euthanized immediately after the last blood sampling by concussion and cervical dislocation.
The dosing vehicle used for each test peptide was a mannitol-containing histidine buffer (pH 7.0). Plasma samples were analyzed after precipitation with ethanol by liquid chromatography mass spectrometry (LC-MS/MS). Mean plasma concentrations were used for calculation of the pharmacokinetic parameters.
Plasma terminal elimination half-life (t1/2) was determined as In(2)/λz, where λz is the magnitude of the slope of the log linear regression of the log concentration versus time profile during the terminal phase.

In data set [4] the target is T2, recombinant human calcitonin receptor (hCT-R) (Homo sapiens, UniProt P30988).
T2 construct: host or cells: human astrocytoma cell line 1321N1
T2 sequence (P30988 25-474): T1 sequence (P30988 25-474)
Briefly: hCT-R cAMP assay (AlphaScreen) in 1321N1 cells. The format is cell-based. The conditions noted are these: cAMP formation, 45 min stimulation. A digest of the protocol: as §1

Data set [5] can be described thus: Assessment of physical stability: fibril formation by Thioflavin T fluorescence. The class given is physicochemical. Further details: key: FND = fibrillation not detected; FD = fibrillation detected. To be noted: 1 mg/mL peptide; for Fibrillation (in buffer) pH4 acetate: 50 mM acetate buffer pH 4.0, 96 hours at 40° C.; for Fibrillation (in buffer) pH7 histidine: 50 mM histidine buffer pH 7.0, 96 hours at 40° C.; for Fibrillation (in buffer) pH7 phosphate: 50 mM phosphate buffer pH 7.0, 96 hours at 40° C. A digest of the protocol: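 Fibrillation detected (FD) means a significant rise in ThT fluorescence over 96 hours at 40° C, read at 10 min intervals each preceded by 300 s automixing. Samples: 1 mg/mL peptide, 40 μM ThT, in 50 mM phosphate or histidine (pH 7.0) or acetate (pH 4.0), triplicate.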

Data set [6] can be described thus: Assessment of chemical stability in 40 mM buffers at 40° C. (RP-HPLC). The format is physicochemical. To be noted: 1 mg/mL; for % degradation after 72 h at 40° C. pH4 acetate: acetate buffer pH 4, 72 h; for % degradation after 72 h at 40° C. pH6 phosphate: phosphate buffer pH 6, 72 h; for % degradation after 72 h at 40° C. pH7 phosphate: phosphate buffer pH 7, 72 h; for % degradation after 14 days at 40° C. pH7 phosphate: phosphate buffer pH 7, 14 days. A digest of the protocol:
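Degradation is the main-peak area-% at each time point minus that at t=0, measured by C8 reversed-phase HPLC (TFA/acetonitrile/water gradient, 220 nm). Incubation at 40° C for 3 or 14 days, 1 mg/mL peptide in 40 mM buffer at pH 4, 6 or 7.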

The conditions of data set [7]: cited from earlier work.
For data set [8] the following is noted: WO99/34764; cited from earlier work.

pEC50: −log10 of the molar value. Numbered stars: 1 amine (or outer) side, 2 acyl side, 3 side chain; on linkers, the order of the positions; unused ones are H or OH. Bridge positions count the residues as written; N and C are the ends. Square brackets hold non-standard residues; d marks the D form. Peptide text beside a SMILES is read from it. * marks the point of attachment. C20 diacid = O=C(O)CCCCCCCCCCCCCCCCCCC(=O)*; γGlu = O=C(O)[C@H](CCC(=O)[*:2])N[*:1]; Hyp = O=C(O)[C@@H]1C[C@@H](O)CN1; NMeI = CC[C@H](C)[C@H](NC)C(=O)O; Aad = N[C@@H](CCCC(=O)O)C(=O)O; Sar = CNCC(=O)O

For `CC[C@H](C)[C@@H](C(=O)N[C@@H](CC(C)C)C(=O)N[C@@H](CO)C(=O)N[C@@H](CO)C(=O)N[C@H](C(=O)N[C@@H](CCC(=O)O)C(=O)N[C@H](C(=O)NCC(=O)N[C@@H](CO)C(=O)N[C@@H](CC(N)=O)C(=O)N[C@H](C(=O)N1C[C@H](O)C[C@H]1C(N)=O)[C@@H](C)O)C(C)C)[C@@H](C)O)N(C)C(=O)[C@H](C)NC(=O)CN(C)C(=O)[C@H](Cc1ccccc1)NC(=O)[C@H](CO)NC(=O)[C@H](CO)NC(=O)[C@H](CCCNC(=N)N)NC(=O)[C@H](CCC(N)=O)NC(=O)[C@H](CC(C)C)NC(=O)[C@H](Cc1ccccc1)NC(=O)[C@H](CCCC(=O)O)NC(=O)[C@H](C)NC(=O)[C@H](CC(C)C)NC(=O)[C@H](CCCNC(=N)N)NC(=O)[C@H](CCC(=O)O)NC(=O)[C@@H](NC(=O)[C@H](C)NC(=O)[C@@H]1CCCCNC(=O)C[C@H](NC(=O)[C@H](CCCNC(=N)N)NC(=O)CC[C@H](NC(=O)CCCCCCCCCCCCCCCCCCC(=O)O)C(=O)O)C(=O)NCC(=O)N[C@@H]([C@@H](C)O)C(=O)N[C@@H](C)C(=O)N[C@@H]([C@@H](C)O)C(=O)N1)[C@@H](C)O` [Compound 35, [19CD]-isoGlu-RD()GTATK()ATERLA-Aad-FLQRSSF-Gly(Me)-A-Ile(Me)-LSSTEVGSNT-Hyp-NH2] ({C20 diacid-γGlu}-RDGTATKATERLA[Aad]FLQRSSF[Sar]A[NMeI]LSSTEVGSNT[Hyp]-NH2; lactam 2-7), in data set [1], the “Body weight reduction in % at 48 h” value is 12% and the “Food intake reduction in % at 48 h” value came out at 72%. In addition, the negative-log EC50 (pEC50) in data set [2] is 10.55. The half-life in data set [3] is 36.1 h. Besides, the negative-log EC50 (pEC50) in data set [4] was 10.18. Besides, in data set [5], the “Fibrillation (in buffer) pH4 acetate” value is reported as “FND”, the “Fibrillation (in buffer) pH7 histidine” value is on record as “FND” and the “Fibrillation (in buffer) pH7 phosphate” value is given as “FND”. Besides, in data set [6], the “% degradation after 72 h at 40° C. pH4 acetate” value is listed as less than 1%, the “% degradation after 72 h at 40° C. pH6 phosphate” value is given as less than 1%, the “% degradation after 72 h at 40° C. pH7 phosphate” value is given as 1.4% and the “% degradation after 14 days at 40° C. pH7 phosphate” value is reported as less than 1%. Also, in data set [6] (acetate buffer pH 4, 14 days), the “% degradation after 14 days at 40° C. pH4 acetate” value came out at 2%. Also, the “% degradation after 14 days at 40° C. pH6 phosphate” value in data set [6] (phosphate buffer pH 6, 14 days) was less than 1%.
With `CC[C@H](C)[C@@H](C(=O)N[C@@H](CC(C)C)C(=O)N[C@@H](CO)C(=O)N[C@@H](CO)C(=O)N[C@H](C(=O)N[C@@H](CCC(=O)O)C(=O)N[C@H](C(=O)NCC(=O)N[C@@H](CO)C(=O)N[C@@H](CC(N)=O)C(=O)N[C@H](C(=O)N1C[C@H](O)C[C@H]1C(N)=O)[C@@H](C)O)C(C)C)[C@@H](C)O)N(C)C(=O)[C@H](C)NC(=O)CN(C)C(=O)[C@H](Cc1ccccc1)NC(=O)[C@@H](NC(=O)[C@@H](NC(=O)[C@H](CCCNC(=N)N)NC(=O)[C@H](CCC(N)=O)NC(=O)[C@H](CC(C)C)NC(=O)[C@H](Cc1ccccc1)NC(=O)[C@H](CCCC(=O)O)NC(=O)[C@H](C)NC(=O)[C@H](CC(C)C)NC(=O)[C@H](CCCNC(=N)N)NC(=O)[C@H](CCC(=O)O)NC(=O)[C@@H](NC(=O)[C@H](C)NC(=O)[C@@H]1CCCCNC(=O)C[C@H](NC(=O)[C@H](CCCNC(=N)N)NC(=O)CC[C@H](NC(=O)CCCCCCCCCCCCCCCCCCC(=O)O)C(=O)O)C(=O)NCC(=O)N[C@@H]([C@@H](C)O)C(=O)N[C@@H](C)C(=O)N[C@@H]([C@@H](C)O)C(=O)N1)[C@@H](C)O)[C@@H](C)O)[C@@H](C)O` [Compound 38, [19CD]-isoGlu-RD()GTATK()ATERLA-Aad-FLQRTTF-Gly(Me)-A-Ile(Me)-LSSTEVGSNT-Hyp-NH2] ({C20 diacid-γGlu}-RDGTATKATERLA[Aad]FLQRTTF[Sar]A[NMeI]LSSTEVGSNT[Hyp]-NH2; lactam 2-7), in data set [1], the “Body weight reduction in % at 48 h” value is reported as 8.2% and the “Food intake reduction in % at 48 h” value turned out to be 43%. Also, the negative logarithm of the EC50 (pEC50) in data set [2] is 10.22. Moreover, the half-life in data set [3] was 31.8 h. Moreover, the pEC50 in data set [4] was 9.94. In data set [5], the “Fibrillation (in buffer) pH4 acetate” value is on record as “FD”, the “Fibrillation (in buffer) pH7 histidine” value is “FND” and the “Fibrillation (in buffer) pH7 phosphate” value is reported as “FND”. In data set [6], the “% degradation after 72 h at 40° C. pH4 acetate” value is less than 1%, the “% degradation after 72 h at 40° C. pH6 phosphate” value is less than 1%, the “% degradation after 72 h at 40° C. pH7 phosphate” value is given as less than 1% and the “% degradation after 14 days at 40° C. pH7 phosphate” value is recorded as less than 1%.
As for `CC[C@H](C)[C@H](NC(=O)[C@@H]1CCCN1C(=O)CNC(=O)[C@H](Cc1ccccc1)NC(=O)[C@H](CC(N)=O)NC(=O)[C@H](CC(N)=O)NC(=O)[C@H](CO)NC(=O)[C@H](CO)NC(=O)[C@H](Cc1c[nH]cn1)NC(=O)[C@@H](NC(=O)[C@H](CC(C)C)NC(=O)[C@H](Cc1ccccc1)NC(=O)[C@H](CC(N)=O)NC(=O)[C@H](C)NC(=O)[C@H](CC(C)C)NC(=O)[C@H](CCCNC(=N)N)NC(=O)[C@H](CCC(N)=O)NC(=O)[C@@H](NC(=O)[C@H](C)NC(=O)[C@@H]1CSSC[C@H](NC(=O)[C@@H](N)CCCCN)C(=O)N[C@@H](CC(N)=O)C(=O)N[C@@H]([C@@H](C)O)C(=O)N[C@@H](C)C(=O)N[C@@H]([C@@H](C)O)C(=O)N1)[C@@H](C)O)C(C)C)C(=O)N[C@@H](CC(C)C)C(=O)N1CCC[C@H]1C(=O)N1CCC[C@H]1C(=O)N[C@H](C(=O)N[C@@H](CC(N)=O)C(=O)N[C@H](C(=O)NCC(=O)N[C@@H](CO)C(=O)N[C@@H](CC(N)=O)C(=O)N[C@H](C(=O)N[C@@H](Cc1ccc(O)cc1)C(N)=O)[C@@H](C)O)C(C)C)[C@@H](C)O` [pramlintide], the “effect on body weight in human trials” value in data set [7] is given as “reduce body weight or reduce weight gain”.
Consider ^2,7cyclo-[2Asp,7Lys]-h-amylin, for which the “potency compared with other amylin analogues and human amylin” value in data set [8] is recorded as “considerably lower potency”.
